Measured values taken from patent publication US9856232B1, “Dihydropyrimidinone derivatives” (KING SAUD UNIVERSITY, priority 2017, dated 2018).
Marks after values point to notes of the source that are not given here.

Tests used:
[1] = system: gastric wall mucus in stomach tissue, change induced by 80% ethanol; test: Determination of gastric wall mucus (GWM); assay type: in vivo, Albino Wistar rats; conditions: i.p, 80% ethanol-treated rats, mean ± SE
Experimental: (§1) Albino Wistar rats of either sex, approximately the same age, weighing 150 to 200 g and fed on a diet of standard chow were used in this study. They were randomly divided into experimental groups of six rats each. Compounds (N-1 to N-18) 12.5, 25, and 50 mg/kg were given orally in the anti-ulcer studies and intraperitoneally for gastric secretion evaluation. The rats were sacrificed, and the stomachs removed and opened along the greater curvature, After washing with saline, the gastric lesions were quantified by a person unaware of the treatments. The animal study protocol was approved by the Research and Ethics Committee of the Experimental Animal Care Society, College of Pharmacy, King Saud University, Riyadh, Saudi Arabia.
Determination of gastric wall mucus (GWM): Gastric wall mucus was determined according to the modified procedure. The glandular segment of the stomach was separated from the rumen of the stomach, weighed, and transferred immediately to 10 mL of 0.1% w/v Alcian blue solution (in […] sucrose solution buffered with […] sodium acetate at pH 5. Tissue was stained for 2 hours in Alcian blue, and excess dye was removed by two successive rinses with 10 mL of […] sucrose, firstly after 15 minutes and then after 45 minutes. Dye complexed with the gastric wall mucus was extracted with 10 ml of […] magnesium chloride which was intermittently shaken for 1 minute at 30 minute intervals for 2 hours. Four milliliters of blue extract were then vigorously shaken with an equal volume of diethyl ether. The resulting emulsion was centrifuged at 4000 r/min for 10 minutes and the absorbance of the aqueous layer was recorded at 580 nm. The quantity of Alcian blue extracted per gram of wet glandular tissue was then calculated. Table 6 provides the effect of compounds on the change in gastric wall mucus in stomach tissue induced by 80% ethanol (mean±SE).

[2] = system: Gastric lesions induced by necrotizing agents (80% ethanol, 0.2 mol/L NaOH or 25% NaCl); test: Gastric lesions induced by necrotizing agents (cytoprotection); assay type: in vivo, Albino Wistar rats; conditions: i.p, 30 min before necrotizing agent, mean ± SE
[3] = system: Indomethacin-induced gastric mucosal lesions; test: Gastric lesions induced by Indomethacin; assay type: in vivo, Albino Wistar rats; set-up: scale not given here; conditions: i.p, 30 min before Indomethacin 30 mg/kg, mean ± SE
From the text: Albino Wistar rats of either sex, approximately the same age, weighing 150 to 200 g and fed on a diet of standard chow were used in this study. They were randomly divided into experimental groups of six rats each. […] The rats were sacrificed, and the stomachs removed and opened along the greater curvature, After washing with saline, the gastric lesions were quantified by a person unaware of the treatments. The animal study protocol was approved by the Research and Ethics Committee of the Experimental Animal Care Society, College of Pharmacy, King Saud University, Riyadh, Saudi Arabia.
Gastric lesions induced by Indomethacin: Indomethacin was suspended in 1.0% carboxymethylcellulose (CMC) in water (6 mg/mL) and administered orally to the 36 hour fasted rats at a dose of 30 mg/kg body weight. Control rats were treated similarly with an equivalent amount of vehicle. […] The animals were sacrificed 6 hours after treatment. The stomachs were excised, rinsed with normal saline and examined for ulceration. Table 3 provides the effect of compounds on Indomethacin-induced gastric mucosal lesions (mean±SE).

[4] = system: Gastric lesions induced by 80% ethanol; test: Gastric lesions induced by ethanol (ulcer index by severity scores); assay type: in vivo, Albino Wistar rats; conditions: Rattus norvegicus, po, vs 80% EtOH group, read-out: Gastric lesions induced by 80% ethanol, % change; for inhibition in vivo at 12.5 mg/kg: compound 12.5 mg/kg; for inhibition in vivo at 25 mg/kg: compound 25 mg/kg; for inhibition in vivo at 50 mg/kg: compound 50 mg/kg
Experimental: as §1
Gastric lesions induced by ethanol: Albino rats of either sex weighing between (150-200 g) are divided into groups. The animals were fasted for 24 hours with free access to water. Animals were given test drugs or standard drug. One hour later 1 mL/200 gm of 80% ethanol is administered orally to each animal. The animals were anaesthetized 1 hour latter with anesthetic ether and stomach was incised along the greater curvature and ulceration was scored. The number of ulcers and the length of each ulcer were measured. Ulcer index was calculated using severity scores. The mucosal damage was examined by means of a magnifying glass. For each stomach the mucosal damage was assessed according to the following scoring system: 0.5 redness; 1.0 spot ulcers; 1.5 hemorrhagic streaks; 2.0 ulcers<3, but≦5; 3.0 ulcers>5. Table 1 provides the effect of compounds on gastric lesions induced by 80% ethanol (mean±SE).

Row | Structure (SMILES) | Gastric Wall Mucus ([1]; 12.5 mg/kg) | Gastric Wall Mucus ([1]; 25 mg/kg) | Gastric Wall Mucus ([1]; 50 mg/kg) | Ulcer Index, 0.2 mol/L NaOH ([2]; 12.5 mg/kg) | Ulcer Index, 25% NaCl ([2]; 12.5 mg/kg) | Ulcer Index, 80% EtOH ([2]; 12.5 mg/kg) | Ulcer Index, 0.2 mol/L NaOH ([2]; 25 mg/kg) | Ulcer Index, 25% NaCl ([2]; 25 mg/kg) | Ulcer Index, 80% EtOH ([2]; 25 mg/kg) | Ulcer Index, 0.2 mol/L NaOH ([2]; 50 mg/kg) | Ulcer Index, 25% NaCl ([2]; 50 mg/kg) | Ulcer Index, 80% EtOH ([2]; 50 mg/kg) | Ulcer Index, indomethacin-induced gastric mucosal lesions ([3]; 12.5 mg/kg) | Ulcer Index, indomethacin-induced gastric mucosal lesions ([3]; 25 mg/kg) | Ulcer Index, indomethacin-induced gastric mucosal lesions ([3]; 50 mg/kg) | inhibition in vivo at 12.5 mg/kg [4] [%] | inhibition in vivo at 25 mg/kg [4] [%] | inhibition in vivo at 50 mg/kg [4] [%] | melting point [°C]
1 | O=C1NC=C(C(=O)c2ccc(N3CCCCC3)cc2)C(c2ccc([N+](=O)[O-])cc2)N1 (stereo not drawn) [Compound N-3, 4-(4-Nitrophenyl)-5-[4-(piperidin-1-yl)benzoyl]-3,4-dihyropyrimidin-2(1H)-one] | 242.08 ± 4.03*^b μg/g | 241.66 ± 6.91**^b μg/g | 256.18 ± 8.39***^b μg/g | 4.50 ± 0.22.*** | 5.16 ± 0.47 | 6.83 ± 0.30 | 2.66 ± 0.33 | 2.83 ± 0.30 | 4.16 ± 0.30 | 1.83 ± 0.40 | 1.66 ± 0.33 | 3.00 ± 0.36 | 29.83 ± 1.66 | 20.50 ± 1.52 | 12.66 ± 1.28 | 33.3 | 53.3 | 60 | –
2 | COc1ccccc1C1NC(=O)NC=C1C(=O)c1ccc(N2CCCCC2)cc1 (stereo not drawn) [Compound N-8, 4-(2-Methoxyphenyl)-5-[4-(piperidin-1-yl)benzoyl]-3,4-dihydropyrimidin-2(1H)-one] | 206.39 ± 7.18^b μg/g | 212.00 ± 6.40^b μg/g | 244.65 ± 5.36**^b μg/g | 6.66 ± 0.33 | 6.00 ± 0.25 | 7.00 ± 0.36 | 5.33 ± 0.71 | 5.00 ± 0.44 | 6.50 ± 0.42 | 3.83 ± 0.30 | 3.33 ± 0.30 | 5.83 ± 0.30 | 33.00 ± 1.52 | 29.50 ± 1.58 | 28.66 ± 1.45 | 33.3 | 50 | 53.3 | –
3 | CN(C)c1ccc(C2NC(=O)NC=C2C(=O)c2ccc(N3CCCCC3)cc2)cc1 (stereo not drawn) [Compound N-11, 4-(4-Dimethylaminophenyl)-5-[4-(piperidin-1-yl)benzoyl]-3,4-dihydropyrimidin-2(1H)-one] | 192.87 ± 12.84^b μg/g | 224.88 ± 4.64*^b μg/g | 217.36 ± 3.31**^b μg/g | 6.33 ± 0.42 | 6.00 ± 0.36 | 7.16 ± 0.30 | 3.66 ± 0.21 | 4.83 ± 0.40 | 6.16 ± 0.30 | 3.66 ± 0.33 | 3.83 ± 0.30 | 4.83 ± 0.30 | 33.00 ± 1.03 | 30.66 ± 1.28 | 28.31 ± 1.78 | 22.5 | 48.3 | 61.2 | 185 to 187
4 | COc1ccc(C2NC(=O)NC=C2C(=O)c2ccc(N3CCCCC3)cc2)c(OC)c1OC (stereo not drawn) [Compound N-15, 4-(2,3,4-Trimethoxyphenyl)-5-[4-(piperidin-1-yl)benzoyl]-3,4-dihydropyrimidin-2(1H)-one] | 231.78 ± 4.77*^b μg/g | 248.09 ± 7.69**^b μg/g | 275.32 ± 5.37***^b μg/g | 3.50 ± 0.22 | 3.66 ± 0.33 | 4.66 ± 0.33 | 2.16 ± 0.30 | 2.66 ± 0.33 | 2.66 ± 0.33 | 1.33 ± 0.42 | 1.66 ± 0.33 | 2.16 ± 0.30 | 26.33 ± 1.30 | – | 14.50 ± 1.64 | 35.4 | 54.8 | 67.7 | –
